Molecules are shown by their SMILES.

Chain of USP19 (O94966 whole entry): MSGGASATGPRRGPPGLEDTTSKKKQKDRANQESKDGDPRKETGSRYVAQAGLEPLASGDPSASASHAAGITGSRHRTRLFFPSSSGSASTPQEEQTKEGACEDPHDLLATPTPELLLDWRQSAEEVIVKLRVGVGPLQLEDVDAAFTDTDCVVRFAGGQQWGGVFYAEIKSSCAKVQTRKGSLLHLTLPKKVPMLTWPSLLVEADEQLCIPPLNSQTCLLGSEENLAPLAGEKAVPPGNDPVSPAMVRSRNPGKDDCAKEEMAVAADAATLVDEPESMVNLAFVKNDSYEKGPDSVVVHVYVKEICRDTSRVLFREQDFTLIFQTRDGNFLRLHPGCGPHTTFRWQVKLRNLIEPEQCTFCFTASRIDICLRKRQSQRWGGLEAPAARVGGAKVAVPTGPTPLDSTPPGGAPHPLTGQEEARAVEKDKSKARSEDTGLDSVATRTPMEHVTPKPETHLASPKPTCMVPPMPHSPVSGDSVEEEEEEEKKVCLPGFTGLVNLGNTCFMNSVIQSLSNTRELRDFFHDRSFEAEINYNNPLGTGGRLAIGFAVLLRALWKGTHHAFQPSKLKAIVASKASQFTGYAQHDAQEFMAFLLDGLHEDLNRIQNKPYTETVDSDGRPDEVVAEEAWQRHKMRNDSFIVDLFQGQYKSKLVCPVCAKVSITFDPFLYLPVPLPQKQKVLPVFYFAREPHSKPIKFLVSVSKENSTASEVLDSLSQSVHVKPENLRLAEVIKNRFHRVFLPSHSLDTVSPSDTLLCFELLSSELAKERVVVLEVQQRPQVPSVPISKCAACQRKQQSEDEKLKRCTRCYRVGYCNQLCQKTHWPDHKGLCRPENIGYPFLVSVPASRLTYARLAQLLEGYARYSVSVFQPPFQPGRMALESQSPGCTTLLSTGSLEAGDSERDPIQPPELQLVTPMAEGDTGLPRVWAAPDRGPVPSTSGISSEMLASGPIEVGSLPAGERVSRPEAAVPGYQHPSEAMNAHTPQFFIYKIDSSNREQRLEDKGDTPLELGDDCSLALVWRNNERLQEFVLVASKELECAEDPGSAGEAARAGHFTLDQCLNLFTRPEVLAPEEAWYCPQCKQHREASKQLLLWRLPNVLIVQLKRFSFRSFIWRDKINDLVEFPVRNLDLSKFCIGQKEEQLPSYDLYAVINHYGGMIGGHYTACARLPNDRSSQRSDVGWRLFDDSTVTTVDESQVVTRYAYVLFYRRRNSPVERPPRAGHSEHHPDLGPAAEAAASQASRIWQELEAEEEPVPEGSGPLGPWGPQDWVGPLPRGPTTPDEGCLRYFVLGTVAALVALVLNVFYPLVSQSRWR

The assay addresses USP19 (Homo sapiens (Human), UniProt O94966). The assay can be described thus: USP19 activity assay (fluorescence polarisation, Ubiquitin-Lys-TAMRA substrate). The class given is biochemical. As to conditions: full-length USP19 2.5 nM, 30 min pre-incubation, Ub substrate 500 nM; average of at least two duplicate experiments. The method, then:
Unless otherwise stated, all other reagents were purchased from Sigma. Enzymatic reactions were conducted in black flat bottom polystyrene 384-well plates (Nunc) and 30 μL total volume. […] Inhibitors were stored as 10 mM DMSO stocks in an inert environment (low humidity, dark, low oxygen, room temperature) using the Storage Pod System and serial dilutions were prepared in buffer just prior to the assay (from 200 μM to 2 pM, 8-18 data point curve). Following incubation at RT for 30 min, the enzymatic reactions were initiated by dispensing the Ub substrate (500 nM, 10 μL). FP was measured every 15 min over a period of 90 min (within the linear range of the assay) using a Synergy 4 plate reader (BioTek) exciting at 530 nm and measuring the amount of parallel and perpendicular light at 575 nm. The FP signal was subsequently normalised to the no compound control.
(In fluorescence polarisation assays a small probe gives low polarisation when free and higher when bound to something large.)
By IC50 is commonly meant the midpoint of a concentration-inhibition curve. For the compound `C[C@H](CC(=O)N1CCC(O)(Cn2cc(-c3ccccc3)c(N(C)C)cc2=O)CC1)c1ccccc1` [Example 11, (R)-4-(Dimethylamino)-1-((4-hydroxy-1-(3-phenylbutanoyl)piperidin-4-yl)methyl)-5-phenylpyridin-2(1H)-one], the half-maximal inhibitory concentration (IC50) lay within 50 to 250 µM.

As to `C=C(C)c1cc(=O)n(CC2(O)CCN(C(=O)C[C@@H](C)c3ccccc3)CC2)cc1-c1ccccc1` [Example 12, (R)-1-((4-Hydroxy-1-(3-phenylbutanoyl)piperidin-4-yl)methyl)-5-phenyl-4-(prop-1-en-2-yl)pyridine-2(1H)-one], the concentration for half-maximal inhibition (IC50) is 5 to 50 µM.

As for `CCOC(=O)c1cn(CC2(O)CCN(C(=O)C[C@@H](C)c3ccccc3)CC2)c(=O)cc1-c1ccccc1` [Example 13, (R)-Ethyl 1-((4-hydroxy-1-(3-phenylbutanoyl)piperidin-4-yl)methyl)-6-oxo-4-phenyl-1,6-dihydropyridine-3-carboxylate], the concentration for half-maximal inhibition (IC50) lay within 50 to 250 µM.

For the compound `C[C@H](CC(=O)N1CCC(O)(Cn2cnc(-c3cccc4cnn(C)c34)cc2=O)CC1)c1ccccc1` [Example 16, (R)-3-((4-Hydroxy-1-(3-phenylbutanoyl)piperidin-4-yl)methyl)-6-(1-methyl-1H-indazol-7-yl)pyrimidin-4(3H)-one], the IC50 lay in the range of 5 to 50 µM.

Take `COc1ccccc1-c1cc(=O)n(CC2(O)CCN(C(=O)C[C@@H](C)c3ccccc3)CC2)cn1` [Example 17, (R)-3-((4-Hydroxy-1-(3-phenylbutanoyl)piperidin-4-yl)methyl)-6-(2-methoxyphenyl)pyrimidin-4(3H)-one]: the 50% inhibitory concentration (IC50) was in the range of 5 to 50 µM.

As to `Cc1nc(-c2ccccc2)cc(=O)n1CC1(O)CCN(C(=O)C[C@@H](C)c2ccccc2)CC1` [Example 18, (R)-3-((4-Hydroxy-1-(3-phenylbutanoyl)piperidin-4-yl)methyl)-2-methyl-6-phenylpyrimidin-4(3H)-one], the concentration for half-maximal inhibition (IC50) was in the range of 5 to 50 µM.

For the compound `C[C@H](CC(=O)N1CCC(O)(Cn2nc(-c3ccccc3)c(-c3ccccc3)cc2=O)CC1)c1ccccc1` [Example 19, (R)-2-((4-Hydroxy-1-(3-phenylbutanoyl)piperidin-4-yl)methyl)-5,6-diphenylpyridazin-3(2H)-one], the IC50 is 5 to 50 µM.

As to `C[C@H](CC(=O)N1CCC(O)(Cn2cnc(-c3cccc4ccccc34)cc2=O)CC1)c1ccccc1` [Example 20, (R)-3-((4-Hydroxy-1-(3-phenylbutanoyl)piperidin-4-yl)methyl)-6-(naphthalen-1-yl)pyrimidin-4(3H)-one], the IC50 was in the range of 5 to 50 µM.

As for `C[C@H](CC(=O)N1CCC(O)(Cn2cnc(-c3cccc(C4OCCO4)c3)cc2=O)CC1)c1ccccc1` [Example 21, (R)-6-(3-(1,3-Dioxolan-2-yl)phenyl)-3-((4-hydroxy-1-(3-phenylbutanoyl)piperidin-4-yl)methyl)pyrimidin-4(3H)-one], the IC50 lay within 5 to 50 µM.

For the compound `C[C@H](CC(=O)N1CCC(O)(Cn2cnc(-c3ccsc3)cc2=O)CC1)c1ccccc1` [Example 22, (R)-3-((4-Hydroxy-1-(3-phenylbutanoyl)piperidin-4-yl)methyl)-6-(thiophen-3-yl)pyrimidin-4(3H)-one], the IC50 was 5 to 50 µM.

On to `CC(C)N(C)C(=O)c1cn(CC2(O)CCN(C(=O)C3(C)CCCC3)CC2)c(=O)cc1-c1ccccc1F` [Example 23, 4-(2-Fluorophenyl)-1-((4-hydroxy-1-(1-methylcyclopentane-1-carbonyl)piperidin-4-yl)methyl)-N-isopropyl-N-methyl-6-oxo-1,6-dihydropyridine-3-carboxamide], for which the IC50 fell in the range of 5 to 50 µM.

With `CCC1(C(=O)N2CCC(O)(Cn3cnc(-c4ccccc4F)cc3=O)CC2)CCCCC1` [Example 24, 3-((1-(1-Ethylcyclohexane-1-carbonyl)-4-hydroxypiperidin-4-yl)methyl)-6-(2-fluorophenyl)pyrimidin-4(3H)-one], the IC50 lay in the range of 5 to 50 µM.

As to `CC(C)C(CC1CCCCC1)C(=O)N1CCC(O)(Cn2cnc(-c3ccccc3F)cc2=O)C(C)(C)C1` (centres unmarked) [Example 25, 3-((1-(2-(Cyclohexylmethyl)-3-methylbutanoyl)-4-hydroxy-3,3-dimethylpiperidin-4-yl)methyl)-6-(2-fluorophenyl)pyrimidin-4(3H)-one], the half-inhibitory concentration (IC50) lay in the range of 0.5 to 5 µM.

As for `C[C@H](CC(=O)N1CCC(O)(Cn2cnc(-c3ccco3)cc2=O)CC1)c1ccccc1` [Example 26, (R)-6-(Furan-2-yl)-3-((4-hydroxy-1-(3-phenylbutanoyl)piperidin-4-yl)methyl)pyrimidin-4(3H)-one], the IC50 lay in the range of 50 to 250 µM.

As to `C[C@H](CC(=O)N1CCC(O)(Cn2ccc(-c3ccccc3)cc2=O)CC1)c1ccccc1` [Example 27, (R)-1-((4-Hydroxy-1-(3-phenylbutanoyl)piperidin-4-yl)methyl)-4-phenylpyridin-2(1H)-one], the IC50 was 50 to 250 µM.

As to `C[C@H](CC(=O)N1CCC(O)(Cn2cnc(C3=CCCCC3)cc2=O)CC1)c1ccccc1` [Example 28, (R)-6-(Cyclohex-1-en-1-yl)-3-((4-hydroxy-1-(3-phenylbutanoyl)piperidin-4-yl)methyl)pyrimidin-4(3H)-one], the half-maximal inhibitory concentration (IC50) lay within 50 to 250 µM.

For `C=C(C)c1cc(=O)n(CC2(O)CCN(C(=O)C[C@@H](C)c3ccccc3)CC2)cn1` [Example 29, (R)-3-((4-Hydroxy-1-(3-phenylbutanoyl)piperidin-4-yl)methyl)-6-(prop-1-en-2-yl)pyrimidin-4(3H)-one], the concentration for half-maximal inhibition (IC50) lay in the range of 50 to 250 µM.

As to `C[C@H](CC(=O)N1CCC(O)(Cn2cnc(-c3ccccc3OC(F)(F)F)cc2=O)CC1)c1ccccc1` [Example 30, (R)-3-((4-Hydroxy-1-(3-phenylbutanoyl)piperidin-4-yl)methyl)-6-(2-(trifluoromethoxy)phenyl)pyrimidin-4(3H)-one], the half-maximal inhibitory concentration (IC50) was 50 to 250 µM.

`C[C@H](CC1CCCCC1)C(=O)N1C[C@H]2CC[C@@H](C1)C2(O)Cn1cnc(-c2ccccc2F)cc1=O` (stereo partly drawn) [Example 31, 3-(((1R,5S)-3-((R)-3-Cyclohexyl-2-methylpropanoyl)-8-hydroxy-3-azabicyclo[3.2.1]octan-8-yl)methyl)-6-(2-fluorophenyl)pyrimidin-4(3H)-one]: the concentration for half-maximal inhibition (IC50) fell in the range of 0.5 to 5 µM.

Regarding `C[C@H](CC(=O)N1CCC(O)(Cn2cnc(-c3ccccc3F)cc2=O)CC1)c1ccccc1` [Example 32, (R)-6-(2-Fluorophenyl)-3-((4-hydroxy-1-(3-phenylbutanoyl)piperidin-4-yl)methyl)pyrimidin-4(3H)-one], the IC50 is 5 to 50 µM.

As to `C[C@H](CC(=O)N1CCC(O)(Cc2cnc(-c3ccccc3)[nH]c2=O)CC1)c1ccccc1` [Example 33, (R)-5-((4-Hydroxy-1-(3-phenylbutanoyl)piperidin-4-yl)methyl)-2-phenylpyrimidin-4(3H)-one], the IC50 was in the range of 5 to 50 µM.

Regarding `Cc1nc(-c2ccccc2)cc(=O)n1CC1(O)CCN(C(=O)CCc2ccccc2)CC1` [Example 34, 3-((4-Hydroxy-1-(3-phenylpropanoyl)piperidin-4-yl)methyl)-2-methyl-6-phenylpyrimidin-4(3H)-one], the IC50 was 50 to 250 µM.

Turning to `CC(C)CNc1cc(=O)n(CC2(O)CCN(C(=O)C[C@@H](C)c3ccccc3)CC2)cn1` [Example 35, (R)-3-((4-Hydroxy-1-(3-phenylbutanoyl)piperidin-4-yl)methyl)-6-(isobutylamino)pyrimidin-4(3H)-one], the 50% inhibitory concentration (IC50) lay in the range of 50 to 250 µM.

Source of the values: patent US11053213B2, “Pharmaceutical compounds” (ALMAC DISCOVERY LIMITED, priority 2016, dated 2021).
